The values below come from PMC12635268, “Novel antimicrobial peptides and peptide-microbiome crosstalk in Appalachian salamander skin” (NPJ Biofilms and Microbiomes, 2025).

Where two headings read alike, the source gives them in different places. Ends that are not written are not given here.

Series [1] concerns A. baumannii ATCC 17978. The series is described as follows: microbe, parasite or virus in culture. The method, boiled down: (§1)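 Broth microdilution MIC in cation-adjusted Mueller-Hinton broth, final inoculum 1 × 10⁵ CFU/mL. Peptides in 0.02% TFA + 0.04% BSA, 2-fold series 0.25 to 128 μg/mL, duplicate, 37 °C for 20 h without agitation. Growth imaged; MIC read visually per CLSI.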

Series [2] deals with K. pneumoniae ATCC 700603. The series is described as follows: microbe, parasite or virus in culture. Particulars: K. pneumoniae 700603; Week 2 (12/14/2023). The method, boiled down:
as §1

Series [3] concerns P. aeruginosa MRSN 5519. Description: microbe, parasite or virus in culture. The method in brief: as §1
For series [4], the system named is E. coli ATCC 35218. The series is described as follows: microbe, parasite or virus in culture. Particulars: E. coli 35218; Week 2 (12/14/2023). The method, boiled down: as §1
Series [5] has as its system E. cloacae ATCC 35549. The series is described as follows: microbe, parasite or virus in culture. The method, boiled down: as §1
The subject of series [6] is S. aureus ATCC 25923. The series is described as follows: microbe, parasite or virus in culture. The method, boiled down:
as §1

Series [7] has as its system S. aureus ATCC 43300. Description: microbe, parasite or virus in culture. Particulars: S. aureus 43300; Week 2 (12/14/2023). The method, boiled down:
as §1

For series [8], the system named is E. faecium ATCC 19434. Description: microbe, parasite or virus in culture. The method, boiled down:
as §1

The test system of series [9] is A. baumannii ATCC 19606. Description: microbe, parasite or virus in culture. The method in brief: as §1
Series [10] has as its system E. cloacae ATCC 13047. Description: microbe, parasite or virus in culture. The method in brief:
as §1

The test system of series [11] is K. pneumoniae ATCC 13883. Description: microbe, parasite or virus in culture. The method, boiled down:
as §1

The subject of series [12] is P. aeruginosa ATCC 27853. The series is described as follows: microbe, parasite or virus in culture. The method in brief:
as §1

In series [13] the test system is E. faecium ATCC 49224. The series is described as follows: microbe, parasite or virus in culture. The method in brief:
as §1

Series [14] has as its system E. coli ATCC 43888. Description: microbe, parasite or virus in culture. The method, boiled down: as §1
The subject of series [15] is P. aeruginosa PA01. Description: microbe, parasite or virus in culture. It is filed as cell-based. Conditions: P. aeruginosa 15692 (PAO1); Week 2 (12/14/2023). As to the method: Antimicrobial susceptibility testing of the 20 synthesized peptides against 17 bacterial strains of clinical relevance in the ESKAPEE panel was conducted using minimum inhibitory concentration (MIC) assays following the broth microdilution method outlined by Parker et al.[91]. The ESKAPEE panel is comprised of fourteen American Type Culture Collection (ATCC) strains and three Multidrug Resistant Organism Repository and Surveillance Network (MRSN) bacterial strains. These strains represent at least one drug-susceptible strain and one drug-resistant strain for each bacterium to assess drug efficacy across various resistance mechanisms. This panel is comprised of the following bacterial species and strains: E. faecium (ATCC 19434, ATCC 49224), S. aureus (ATCC 25923, ATCC 43300), K. pneumoniae (ATCC 700603, ATCC 13883, MRSN 1320), A. baumannii (ATCC 17978, ATCC 19606, MRSN 959), P. aeruginosa (ATCC 15692, ATCC 27853, MRSN 5519), E. cloacae (ATCC 13047, ATCC 35549), and E. coli (ATCC 35218, ATCC 43888). Bacteria were grown in cation-adjusted Mueller-Hinton broth (CAMHB) to achieve a final inoculum of 1 × 10⁵ CFU/mL. CAMHB is selected for its batch-to-batch reproducibility, low levels of antimicrobial inhibitors, and ability to support the growth of most bacterial pathogens.
Briefly, lyophilized peptides were dissolved in 0.2% TFA + 0.4% BSA in water to 2.56 mg/mL, ultrasonicated for 20 min, diluted 10-fold into CAMHB, and then serially diluted 2-fold in 0.02% TFA + 0.04% BSA in CAMHB and assayed at a concentration of 0.25 to 128 μg/mL. Assays were set up using the Tecan Freedom EVO liquid handling robot and software (Tecan, Switzerland) with 50 μL of bacterial inoculum and 50 μL of peptide transferred into round-bottom 96-well microtiter plates. Each plate assay was performed in duplicate and incubated at 37 °C for 20 h without agitation. Bacterial growth was assessed using the BIOMIC V3 Image Analysis system (Giles Scientific, USA) and the MIC values were determined visually according to the Clinical and Laboratory Standards Institute (CLSI) guidelines.

The subject of series [16] is K. pneumoniae 4640.
Series [17] relates to P. aeruginosa PA01 (Si). Description: microbe, parasite or virus in culture. The series is classed as cell-based. The text has this:
Supplement 41522_2025_837_MOESM13_ESM.xlsx, sheet "Table_S13_ESKAPEE-MIC" | column: Bacterial MIC (µg/mL)

Series [18] has as its system A. baumannii 5075. Conditions: Week 2 (12/14/2023).
Details of series [19]: method as in Biomatik (vendor). Conditions: 1.0 mg peptide in 1.0 ml solvent; peptides synthesized by Biomatik; ref Biomatik (vendor); cited from earlier work.
Series [20] has as its system Batrachochytrium dendrobatidis Bd-GPL strain JEL404. Particulars: for Bd inhibition score (percent inhibition), mean: slope of growth, positive = inhibition, negative = no inhibition. The method, then:
Bd-peptide challenge assays were conducted with the crude peptides extracted from the salamander skin secretions and with the 20 synthesized peptides. We followed methods by Pereria et al.[49] to conduct assays with the crude peptides using Bd-GPL strain JEL404 at 1 × 10^6 zoospores/mL. Briefly, skin peptide samples were pooled together based on species-site-injection (Table 1). Skin peptides samples were serially diluted 2-fold in MilliQ (Ultrapure Type 1) water and assayed at a concentration of 2.35–75 μg/mL based on starting peptide concentration available. For synthesized peptides, we conducted assays from 15.6 to 500 μg/ml. In both assays, we quantified percent inhibition of each well using slope of growth[90] in which positive values indicate inhibition and negative values indicate no inhibition.

In the case of FPRPPGFTPFR [PrAd-Eb12], the “Bacterial MIC” value is recorded as >128.000 µg/mL in series [1] (A. baumannii 17978, Week 2 (12/14/2023)); >128.000 µg/mL in [2]; >128.000 µg/mL in series [3] (P. aeruginosa 5519, Week 2 (12/14/2023)); >128.000 µg/mL in [4]; >128.000 µg/mL in [5] (E. cloacae 35549, Week 2 (12/14/2023)); >128.000 µg/mL in series [6] (S. aureus 25923, Week 2 (12/14/2023)). The “Bacterial MIC” value in [7] was >128.000 µg/mL; in series [8] (E. faecium 19434, Week 2 (12/14/2023)), >128.000 µg/mL; in series [9] (A. baumannii 19606, Week 2 (12/14/2023)), >128.000 µg/mL; in series [10] (E. cloacae 13047, Week 2 (12/14/2023)), >128.000 µg/mL; in series [11] (K. pneumoniae 13883, Week 2 (12/14/2023)) it was >128.000 µg/mL; in series [12] (P. aeruginosa 27853, Week 2 (12/14/2023)), >128.000 µg/mL. Besides, the “Bacterial MIC” value in [13] (E. faecium 49224, Week 2 (12/14/2023)) is recorded as >128.000 µg/mL; in series [14] (E. coli 43888, Week 2 (12/14/2023)), >128.000 µg/mL; in series [15], >128.000 µg/mL; in [16] (K. pneumoniae 4640, Week 2 (12/14/2023)), >128.000 µg/mL; in series [17] (P. aeruginosa PA01 (Si), not typical ESKAPEE strain, Week 2 (12/14/2023)), >128.000 µg/mL; in [18], >128.000 µg/mL. In series [19], the “Suggest solvent (solubility)” value was 1.0mg peptide soluble in 1.0ml H2O. The “Bd inhibition score (percent inhibition), mean” value in [20] (synthesized peptide 15.625 μg/mL) was -2.358%; in series [20] (synthesized peptide 31.25 μg/mL), 4.727%; in [20] (synthesized peptide 62.5 μg/mL), 5.096%; in [20] (synthesized peptide 125 μg/mL), 3.64%; in series [20] (synthesized peptide 250 μg/mL), 0.8166%; in [20] (synthesized peptide 500 μg/mL) it was 9.489%. In addition, in series [20] (synthesized peptide, concentrations down to 31.25 μg/mL), the “mild Bd inhibition, average across concentrations” value is reported as 1–9.5%.

As for NANGASNANGASYANGASN [TrPr-Pc34], the “Bacterial MIC” value in series [1] (ATCC 17978, 20 h) is given as >128.000 µg/mL; in series [2], >128.000 µg/mL; in series [3] (MRSN 5519, 20 h), >128.000 µg/mL; in [4], >128.000 µg/mL; in series [5] (ATCC 35549, 20 h), >128.000 µg/mL; in series [6] (ATCC 25923, 20 h), >128.000 µg/mL. Moreover, the “Bacterial MIC” value in series [7] is >128.000 µg/mL; in series [8] (ATCC 19434, 20 h), >128.000 µg/mL; in series [9] (ATCC 19606, 20 h), >128.000 µg/mL; in series [10] (ATCC 13047, 20 h) it was >128.000 µg/mL; in [11] (ATCC 13883, 20 h), >128.000 µg/mL; in series [12] (ATCC 27853, 20 h), >128.000 µg/mL. The “Bacterial MIC” value in [13] (ATCC 49224, 20 h) is on record as >128.000 µg/mL; in series [14] (ATCC 43888, 20 h), >128.000 µg/mL; in [15] it was >128.000 µg/mL; in series [16] (4640, 20 h), >128.000 µg/mL; in series [17] (Si) it was >128.000 µg/mL; in series [18], >128.000 µg/mL. Also, the “Suggest solvent (solubility)” value in series [19] is recorded as 1.0mg peptide soluble in 1.0ml H2O.

With DVGTQGLSPLR [PrAd-Eb22], the “Bacterial MIC” value in [1] (ATCC 17978, 20 h) is on record as >128.000 µg/mL; in series [2] it was >128.000 µg/mL; in series [3] (MRSN 5519, 20 h) it was >128.000 µg/mL; in [4], >128.000 µg/mL; in series [5] (ATCC 35549, 20 h), >128.000 µg/mL; in [6] (ATCC 25923, 20 h) it was >128.000 µg/mL. Moreover, the “Bacterial MIC” value in series [7] is recorded as >128.000 µg/mL; in series [8] (ATCC 19434, 20 h), >128.000 µg/mL; in series [9] (ATCC 19606, 20 h), >128.000 µg/mL; in series [10] (ATCC 13047, 20 h), >128.000 µg/mL; in series [11] (ATCC 13883, 20 h), >128.000 µg/mL; in series [12] (ATCC 27853, 20 h), >128.000 µg/mL. Besides, the “Bacterial MIC” value is on record as >128.000 µg/mL in series [13] (ATCC 49224, 20 h); >128.000 µg/mL in [14] (ATCC 43888, 20 h); >128.000 µg/mL in series [15]; >128.000 µg/mL in [16] (4640, 20 h); >128.000 µg/mL in series [17] (Si); >128.000 µg/mL in series [18]. The “Suggest solvent (solubility)” value in [19] is 1.0mg peptide soluble in 1.0ml H2O.

For KEGCKEIKGP [TrPr-Eb20], the “Bacterial MIC” value in [1] (ATCC 17978, 20 h) was >128.000 µg/mL; in series [2], >128.000 µg/mL; in series [3] (MRSN 5519, 20 h) it was >128.000 µg/mL; in series [4], >128.000 µg/mL; in series [5] (ATCC 35549, 20 h), >128.000 µg/mL; in series [6] (ATCC 25923, 20 h), >128.000 µg/mL. Besides, the “Bacterial MIC” value is >128.000 µg/mL in [7]; >128.000 µg/mL in [8] (ATCC 19434, 20 h); >128.000 µg/mL in series [9] (ATCC 19606, 20 h); >128.000 µg/mL in series [10] (ATCC 13047, 20 h); >128.000 µg/mL in series [11] (ATCC 13883, 20 h); >128.000 µg/mL in series [12] (ATCC 27853, 20 h). In addition, the “Bacterial MIC” value in [13] (ATCC 49224, 20 h) is reported as >128.000 µg/mL; in series [14] (ATCC 43888, 20 h), >128.000 µg/mL; in series [15] it was >128.000 µg/mL; in [16] (4640, 20 h), >128.000 µg/mL; in series [17] (Si) it was >128.000 µg/mL; in [18] it was >128.000 µg/mL. In addition, the “Suggest solvent (solubility)” value in series [19] is 1.0mg peptide soluble in 1.0ml H2O.
